Tested on: adenosine A1 receptors
Assay: not given
Conditions: cited from earlier work

Row | Compound | antagonistic properties at adenosine A1 receptors
1 | NC(=O)N1c2ccccc2C=Cc2ccccc21 [carbamazepine] | marginal

Target: T1, Rat A1 adenosine receptor (Rattus norvegicus, UniProt P25099)
T1 construct: A1 adenosine receptors isolated from rats; from tissue
T1 sequence (P25099 1-326): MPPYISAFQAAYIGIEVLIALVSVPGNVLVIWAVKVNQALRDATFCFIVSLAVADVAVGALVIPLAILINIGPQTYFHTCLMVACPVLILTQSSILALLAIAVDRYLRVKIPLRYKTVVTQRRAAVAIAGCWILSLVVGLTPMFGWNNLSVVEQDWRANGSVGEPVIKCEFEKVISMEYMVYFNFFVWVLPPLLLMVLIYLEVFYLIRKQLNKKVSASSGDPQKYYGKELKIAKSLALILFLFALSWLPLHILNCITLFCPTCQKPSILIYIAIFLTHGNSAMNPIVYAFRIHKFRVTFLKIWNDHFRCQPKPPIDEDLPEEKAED
Assay: Affinity for A1 adenosine receptors isolated from rats
Assay type: binding
Conditions: not given
From the text: These methods are known in the art. For example, the synthesis of these compounds can be guided by U.S. Pat. No. 5,248,770 or by Jacobson et al., Journal of Medicinal Chemistry, 28, 1341-1346 (1985).

Row | Compound | Ki
2 | NCCCCNC(=O)Cc1ccc(NC(=O)Cc2ccc(Nc3ncnc4c3ncn4[C@@H]3O[C@H](CO)[C@@H](O)[C@H]3O)cc2)cc1 | 1.91 ± 0.17 nM
3 | NCCCNC(=O)Cc1ccc(NC(=O)Cc2ccc(Nc3ncnc4c3ncn4[C@@H]3O[C@H](CO)[C@@H](O)[C@H]3O)cc2)cc1 | 1.96 ± 0.06 nM

More lines, now with the values ahead:

Row | Ki | Compound
4 | 7.95 ± 0.76 nM | Cc1ccc(C(=O)NCCCCNC(=O)Cc2ccc(NC(=O)Cc3ccc(Nc4ncnc5c4ncn5[C@@H]4O[C@H](CO)[C@@H](O)[C@H]4O)cc3)cc2)cc1 [compound 6]
5 | 11.9 ± 2 nM | Cc1ccc(C(=O)NCCNC(=O)Cc2ccc(NC(=O)Cc3ccc(Nc4ncnc5c4ncn5[C@@H]4O[C@H](CO)[C@@H](O)[C@H]4O)cc3)cc2)cc1 [compound 4]
6 | 5.67 ± 0.055 nM | Cc1ccc(C(=O)NCCCNC(=O)Cc2ccc(NC(=O)Cc3ccc(Nc4ncnc5c4ncn5[C@@H]4O[C@H](CO)[C@@H](O)[C@H]4O)cc3)cc2)cc1 [compound 5]

Source: patent publication US6316423A, “Method of treating ischemic, hypoxic and anoxic brain damage” (priority 1999, dated 2001)
